Laboratory results from article PMC6754336 (Drug Design, Development and Therapy, 2019).
Counter-ions that a name gives are not always drawn.

Tests used:
[1] = tested on: serotonin turnover (5-HIAA/5-HT); assay: Serotonin turnover index in rat frontal cortex; format: in vivo; settings: p.o.
[2] = tested on: dopamine turnover ((HVA+DOPAC)/DA); assay: Dopamine turnover index in rat striatum; format: in vivo; settings: p.o.
[3] = Rat dual-probe brain microdialysis study; format: in vivo; settings: rat MD study, 1 mg/kg p.o.
in vivo = settings: male, Wistar, rat, plasma, other: p.o. and i.v.
[4] = human plasma; cited from earlier work
dopamine biosynthesis = assay: NSD-1015-induced DOPA accumulation in striatum of reserpine-treated rats; format: in vivo, rat; settings: p.o.

SMILES: CN(C)C(=O)N[C@H]1CC[C@H](CCN2CCN(c3cccc(Cl)c3Cl)CC2)CC1 [CAR, trans-N-[4-[2-[4-(2,3-dichlorophenyl)piperazin-1-yl]ethyl]cyclohexyl]-N’,N’-dimethylureahydrochloride]
- effect on serotonin turnover [1]: slightly reduced serotonin turnover
- effect on dopamine turnover [2]: dose-dependently enhanced dopamine turnover
- free extracellular level as percent of total brain exposure [3]: 1–2%
- extracellular levels in the brain ([3]; listed as cariprazine, 1 mg/kg): 2.6 to 9.9 nM
- half-life (in vivo): 2 to 3 h
- half-life in humans [4]: 24 to 72 h
- effect on NSD-1015-induced accumulation of DOPA (dopamine biosynthesis): inhibited the NSD-1015-induced accumulation of DOPA
